Consider 22 molecules from ChEMBL document CHEMBL3243927, “5,6,7,8-Tetrahydroquinolines. 5. Antiulcer and antisecretory activity of 5,6,7,8-tetrahydroquinolinethioureas and related heterocycles” (J Med Chem, 1977).

Data set [1] concerns Rattus norvegicus. Nature of the data set: Antiulcer activity in Sprague-Dawley rat assessed as inhibition of cold-restraint stress-induced gastric erosion at 100 mg/kg, po after 3 hrs. The settings on record: Stomach. The arrangement: dose 100 mg/kg. Format: functional, organism-based.
Data set [2] relates to Rattus norvegicus. Nature of the data set: Antisecretory activity in pylorus-ligated Sprague-Dawley rat assessed as inhibition of gastric juice secretion at 10 mg/kg administered intraduodenally after 4 hrs by potentiographic titration analysis. Format: functional, organism-based. Also noted: dose 10 mg/kg.
In data set [3] the test system is Rattus norvegicus. Nature of the data set: Antisecretory activity in pylorus-ligated Sprague-Dawley rat assessed as inhibition of gastric juice secretion at 30 mg/kg administered intraduodenally after 4 hrs by potentiographic titration analysis relative to control. Format: functional, organism-based. Also noted: dose 30 mg/kg.
The subject of data set [4] is Rattus norvegicus. Nature of the data set: Antiulcer activity in Sprague-Dawley rat assessed as inhibition of cold-restraint stress-induced gastric erosion at 30 mg/kg, po after 3 hrs. The arrangement: dose 30 mg/kg. The settings on record: Stomach. Format: functional, organism-based.
Data set [5] deals with Rattus norvegicus. Nature of the data set: Toxicity in po dosed Sprague-Dawley rat assessed as mortality. Format: organism-based. The settings on record: in vivo.

The source made the active and inactive calls. The calls are words filed in the database; no cut-off is given here.

On to `CNC(=S)N1CCCCc2cccnc21`, for which, in the data set on Rattus norvegicus [1], the outcome was inactive. In addition, in the data set with Rattus norvegicus [2], the result was Active.

On to `CNC(=S)NC1CCCc2cc(C)cnc21` (configuration not stated), for which the outcome with Rattus norvegicus [1] and in the data set on Rattus norvegicus [2] was Active. Turning to `S=C1NCc2cccnc2N1`, the outcome in the data set with Rattus norvegicus [1] and in the data set with Rattus norvegicus [3] was inactive. In the case of `Cc1cnc2c(c1)CCCC2NC(N)=S` (configuration not stated), the outcome in the data set on Rattus norvegicus [1] and in the data set on Rattus norvegicus [3] was Active. Take `CN/C(=N/C(N)=S)NC1CCCc2cc(C)cnc21` (configuration not stated): in the data set on Rattus norvegicus [1], the result was Active. Besides, in the data set with Rattus norvegicus [3], the outcome was inactive.

With `CNC(=S)N1CCCc2cccnc21`, the outcome in the data set with Rattus norvegicus [3] and in the data set with Rattus norvegicus [4] was Active. Turning to `CS/C(=N/C#N)NC1CCCc2cc(C)cnc21` (configuration not stated), the result in the data set on Rattus norvegicus [1] was inactive. For `CN/C(=N/C(N)=O)NC1CCCc2cc(C)cnc21` (configuration not stated), the result with Rattus norvegicus [1] and in the data set with Rattus norvegicus [3] was inactive. Turning to `CNC(=S)NC1CCCc2ncc(C)cc21` (configuration not stated), the result in the data set with Rattus norvegicus [1] and in the data set with Rattus norvegicus [3] was inactive. Consider `NC(=S)N1CCc2cccnc21`, for which the result in the data set with Rattus norvegicus [2] was Active. Moreover, the Activity entry with Rattus norvegicus [5] is given as “Toxic”. For the molecule `CNC(=S)N1CCc2ncc(C)cc2C1`, the outcome with Rattus norvegicus [1] was Active. In the data set with Rattus norvegicus [3], the result was inactive. On to `O=C(NC(=S)N1CCc2cccnc21)c1ccccc1`, for which the result with Rattus norvegicus [1] and with Rattus norvegicus [3] was inactive. Consider `CNC(=S)N1CCc2cccnc21`, for which the result in the data set on Rattus norvegicus [3] and with Rattus norvegicus [4] was Active. On to `CNC(=S)NC(C)C1CCCc2cc(C)cnc21` (configuration not stated), for which the result with Rattus norvegicus [1] and in the data set with Rattus norvegicus [3] was inactive. With `NC(=S)N1CCCCc2cccnc21`, in the data set with Rattus norvegicus [1], the outcome was inactive. The result in the data set on Rattus norvegicus [3] was Active. As for `Cc1cnc2c(c1)CCCC2NC(=S)NC(=O)c1ccccc1` (configuration not stated), the result in the data set on Rattus norvegicus [1] and with Rattus norvegicus [3] was inactive. For the molecule `CCCCNC(=S)N1CCc2cccnc21`, the outcome in the data set with Rattus norvegicus [1] and in the data set on Rattus norvegicus [3] was inactive. As to `CNC(=S)N1CCCc2ncccc21`, the result in the data set on Rattus norvegicus [3] and with Rattus norvegicus [4] was Active. Take `Cc1cnc2c(c1)C(NC(=S)NC(=O)c1ccccc1)CCC2` (configuration not stated): in the data set with Rattus norvegicus [5], the Activity entry was “Toxic”. For the same molecule, the result in the data set on Rattus norvegicus [3] was inactive. In the case of `CN/C(=N/C#N)NC1CCCc2cc(C)cnc21` (configuration not stated), the result in the data set with Rattus norvegicus [1] and in the data set with Rattus norvegicus [3] was inactive. Take `Cc1cnc2c(c1)C(NC(N)=S)CCC2` (configuration not stated): the outcome in the data set on Rattus norvegicus [1] was inactive. For `Cc1cnc2c(c1)C(NC(=S)Nc1ccccc1)CCC2` (configuration not stated), the result in the data set with Rattus norvegicus [1] was inactive. For the same molecule, in the data set with Rattus norvegicus [3], the result was Active.
